Assay results as given in patent US9434734B2, “Substituted pyrazoloquinazolinones and pyrroloquinazolinones as allosteric modulators of group II metabotropic glutamate receptors” (Domain Therapeutics, priority 2012, dated 2016).
Counter-ions that a name gives are not always drawn.

| melting point [°C] | SMILES |
| --- | --- |
| > 250 | Cc1cc(-c2ccc3c(=O)n(CC(F)(F)F)c4cc(C5CCOCC5)nn4c3c2)cc(C)n1.Cl |
| > 250 | Cc1cc(-c2cc3n(C)c(=O)c4ccc(-c5ccn[nH]5)cc4n3n2)cc(C)n1.Cl |
| 169 to 187 | Cc1ncccc1-c1ccc2c(=O)n(C)c3cc(-c4cnn(C)c4)nn3c2c1.Cl |
| > 250 | Cc1cc(N)nc(C)c1-c1ccc2c(=O)n(C)c3cc(-c4ccccc4)nn3c2c1.Cl |
| > 250 | Cl.Cn1c(=O)c2ccc(-c3ccc(N)nc3C(F)(F)F)cc2n2nc(-c3ccccc3)cc12 |
| 194 to 196 | Cl.Cn1c(=O)c2ccc(-c3ccc(N4CCOCC4)nc3)cc2n2nc(-c3ccccc3)cc12 |
| 200 to 203 | Cl.Cn1c(=O)c2ccc(-c3ccc(N4CCCCC4)nc3)cc2n2nc(-c3ccccc3)cc12 |
| 241 to 245 | COCCc1cc2n(C)c(=O)c3ccc(-c4cc(C)nc(C)c4)cc3n2n1.Cl |
| 163 to 170 | CCn1c(=O)c2ccc(-c3ccc(N)nc3)cc2n2nc(CCOC)cc12.Cl |
| 173 to 180 | CCn1c(=O)c2ccc(-c3cc(C)nc(C)c3)cc2n2nc(CCOC)cc12.Cl |
| 96 to 102 | CCCn1c(=O)c2ccc(-c3ccc(N)nc3)cc2n2nc(CCOC)cc12.Cl |
| 120 to 125 | CCCn1c(=O)c2ccc(-c3cc(C)nc(C)c3)cc2n2nc(CCOC)cc12.Cl |
| 235 to 242 | COCc1cc2n(C)c(=O)c3ccc(-c4ccc(N)nc4)cc3n2n1.Cl |
| > 250 | COCc1cc2n(C)c(=O)c3ccc(-c4cc(C)nc(C)c4)cc3n2n1.Cl |
| > 250 | CCCn1c(=O)c2ccc(-c3cc(C)nc(C)c3)cc2n2nc(C3CCCC3)cc12.Cl |
| > 250 | Cc1cc(-c2ccc3c(=O)n(CC(F)(F)F)c4cc(C5CCCC5)nn4c3c2)cc(C)n1.Cl |
| 218 to 223 | Cl.Cn1c(=O)c2ccc(-c3ccncc3)cc2n2nc(C3CCOCC3)cc12 |
| 167 to 169 | Cc1ncccc1-c1ccc2c(=O)n(C)c3cc(C4CCOCC4)nn3c2c1.Cl |
| 140 to 146 | Cl.Cn1c(=O)c2ccc(-c3ccc(N)nn3)cc2n2nc(C3CCOCC3)cc12 |
| 231 to 235 | Cc1ccc(-c2ccc3c(=O)n(C)c4cc(C5CCOCC5)nn4c3c2)c(C)n1.Cl |
| > 250 | Cc1cc(-c2cc3n(C)c(=O)c4ccc(-c5ccc(N)nc5)cc4n3n2)cc(C)n1 (as salt: salt) [Example 112, 8-(6-Amino-pyridin-3-yl)-2-(2,6-dimethyl-pyridin-4-yl)-4-methyl-4H-pyrazolo[1,5-a]quinazolin-5-one] |
| > 250 | Cc1cc(-c2cc3n(C)c(=O)c4ccc(-c5cccnc5C)cc4n3n2)cc(C)n1 (as salt: salt) [Example 113, 2-(2,6-Dimethyl-pyridin-4-yl)-4-methyl-8-(2-methyl-pyridin-3-yl)-4H-pyrazolo[1,5-a]quinazolin-5-one] |
| > 250 | Cc1cc(-c2ccc3c(=O)n(C)c4cc(-c5cc(C)nc(C)c5)nn4c3c2)cc(C)n1 (as salt: salt) [Example 114, 2,8-Bis-(2,6-dimethyl-pyridin-4-yl)-4-methyl-4H-pyrazolo[1,5-a]quinazolin-5-one] |
| > 250 | Cc1cc(-c2cc3n(C)c(=O)c4ccc(-c5cccnc5)cc4n3n2)cc(C)n1 (as salt: salt) [Example 116, 2-(2,6-Dimethyl-pyridin-4-yl)-4-methyl-8-pyridin-3-yl-4H-pyrazolo[1,5-a]quinazolin-5-one] |
| > 250 | Cc1ccc(-c2ccc3c(=O)n(C)c4cc(-c5cc(C)nc(C)c5)nn4c3c2)cn1 (as salt: salt) [Example 117, 2-(2,6-Dimethyl-pyridin-4-yl)-4-methyl-8-(6-methyl-pyridin-3-yl)-4H-pyrazolo[1,5-a]quinazolin-5-one] |
